Assay results reported in patent publication US5618713A, “Mutants of human antithrombin III” (Behringwerke Aktiengesellschaft, priority 1989, dated 1997).

Experiments:
Assay type in all cases: biochemical
thrombin = test: heparin cofactor activity (Schrader et al. 1986), Berichrom test kit, excess heparin and thrombin; details: purified protein, excess of heparin and thrombin
Procedure: As taught in Schrader et al., for the determination of the heparin cofactor activity of the AT III mutants with the test kit Berichrom® (Behringwerke AG, Marburg) a solution with the particular AT III mutant was incubated with an excess of heparin and thrombin. The produced AT III mutant-heparin-complex inhibits a part of the thrombin. The non-inactivated part of the thrombin cleaves the chromogenic substrate which was added to the solution and the amount of produced p-nitroaniline was measured at 405 nm photometrically.

bovine thrombin = test: progressive inhibitory activity (Hensen et al. 1963), rate of thrombin inactivation, clotting time; details: purified protein, without heparin
Procedure: As taught in Hensen et al., progressive inhibiting activity is measured by an antithrombin III assay according to the principle that the material to be tested is incubated with thrombin. The rate of thrombin inactivation is measured and is used as a standard of antithrombin III activity.
In the procedure, a bovine thrombin solution of 50 N.I.H. units/ml, stored at-25° C., after being thawed is kept as melting ice; 0.2 ml of this thrombin solution with 0.6 ml veronal buffer, in a siliconized tube, is placed in a waterbath at 37° C. After a minimum of 2 minutes preheating, 0.2 ml of the material to tested (heat-defibrinated plasma or serum or a plasma fraction) is added to the mixture, and a chronometer is started. Exactly 1, 3 and 5 minutes later, 0.2 ml of this incubation mixture is added to 0.3 ml diluted bovine BaSO4 -plasma which has been pre-heated in the waterbath for 2-20 minutes and kept in non-siliconized tubes. The clotting times obtained are registered. The determination is made in duplicate.
If the antithrombin III activity in the sample tested is found to be low (less than 50% of the normal), then the determination should be repeated with the double quantity of the material to be tested (0.4 ml and 0.4 ml veronal buffer).
In the calculation, three times are obtained per determination. […]

alpha-thrombin (human) = test: dependence of thrombin inactivation on the heparin concentration
Procedure: The two mutants were examined for their relative ability to inactivate thrombin as a function of the heparin concentration in the assay and compared with AT III plasma, AT III-WT and the mutant AT III-Lys49 (Tab. 5).
The assay was carried out under the following conditions: 0.02 U (antigen)/ml AT III (AT III plasma, AT III-WT or AT III-Mut) was preincubated with 0.3 IU/ml alpha-thrombin (human), 2 KIU/ml aprotinin (Behringwerke) and heparin (Hoffmann-LaRoche) in concentrations of 0-25 IU/ml in a volume of I ml at 37° C. for 5minutes. After addition of 100 μl of substrate reagent (2 mM HD-CHA-But-Arg-pNA), the change in extinction at 405 nm (37° C.) was followed kinetically. The maximum inhibition of alpha-thrombin at heparin saturation was set equal to 100%.
Tab. 5 indicates the heparin concentration at half-maximum thrombin inhibition (c 1/2) for AT III plasma, AT III-WT and various AT III mutants.

[1] = target: elastase from human polymorphonuclear granulocytes (PMN elastase); test: PMN elastase inhibition assay (chromogenic substrate MeO-Suc-Ala-Ala-Pro-Val-pNA)
Procedure: The liberation of the paranitroaniline from the substrate was measured in a spectrophotometer as the increase in absorption at 405 nm within 15 min. This absorption was defined as 100% activity of the PMN elastase enzyme. The inhibitors were preincubated in concentrations increasing up to a maximum of 100 μg/ml with the enzyme for one hour. The enzyme reaction was then started with the substrate. The assay was carried out in 0.1 mol/1 HEPES, pH 7.5, +0.1 mol/1 sodium chloride. The substrate concentration was 0.13 mmol/1.

| IC50, inhibition of PMN elastase ([1]; 1 h preincubation with enzyme, substrate 0.13 mmol/l, 0.1 mol/l HEPES pH 7.5 + 0.1 mol/l NaCl, max. 100 μg/ml) | type of inhibition of PMN elastase ([1]; KI determination) | Substance | HC, heparin cofactor activity (thrombin) | PI, progressive inhibitory activity (bovine thrombin) | C 1/2 Heparin, heparin concentration at half-maximum relative thrombin inhibition (alpha-thrombin (human); 0.02 U/ml AT III, 0.3 IU/ml alpha-thrombin, heparin 0-25 IU/ml, 5 min 37° C.) | inhibition of thrombin at low heparin concentrations (alpha-thrombin (human); compared in words) |
| --- | --- | --- | --- | --- | --- | --- |
|  |  | ATIII-Gln135: AT III mutant with Asn→Gln exchange in position 135, lacking a carbohydrate side-chain | 4.5 U/mg | 3.9 U/mg | 22 mIU/ml | better than that of AT III plasma and AT III-WT |
| 3.7 µg/mL | non-competitive inhibition | alpha1 PI: reference inhibitor alpha1 protease inhibitor (alpha1 antitrypsin) |  |  |  |  |
